EC50 data for 30 compounds are collected here from US20200055839A1 (priority 2017, published 2020).

In this assay the test system is NL-RLuc virus. Kind of assay: Inhibition of HIV replication (NL-RLuc virus, luciferase readout in MT-2 cells). It counts as cell-based. As to conditions: Human immunodeficiency virus 1, MT2, 120 h, MT-2 cells infected with NL-RLuc virus, 5 days of incubation, 10% FBS, at least 2 experiments. The method, boiled down: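 EC50 derived via median effect equation from at least 2 experiments, using luciferase expression as virus-growth readout. Replication-competent NL-RLuc reporter virus (nef partly replaced by Renilla luciferase) infected MT-2 cells with serial compound dilutions; 5-day incubation in RPMI 1640 plus 10% FBS.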
The EC50 is the concentration needed to bring the measured effect to its halfway point. A low value points to an effect from little substance. Compound `COc1c(Cl)cccc1-c1cnc(C)c([C@H](OC(C)(C)C)C(=O)O)c1N1CCC(C)(C)CC1` [Example 152, (2S)-2-(tert-Butoxy)-2-[5-(3-chloro-2-methoxyphenyl)-4-(4,4-dimethylpiperidin-1-yl)-2-methylpyridin-3-yl]acetic acid] returned an EC50 of 60 nM. In the case of `Cc1ncc(-c2ccccc2C#N)c(N2CCC(C)(C)CC2)c1[C@H](OC(C)(C)C)C(=O)O` [Example 153, (2S)-2-(tert-Butoxy)-2-[5-(2-cyanophenyl)-4-(4,4-dimethylpiperidin-1-yl)-2-methylpyridin-3-yl]acetic acid] it was 29 nM. Then `Cc1ncc(-c2ccccc2C(N)=O)c(N2CCC(C)(C)CC2)c1[C@H](OC(C)(C)C)C(=O)O` [Example 154, (2S)-2-(tert-butoxy)-2-[5-(2-carbamoylphenyl)-4-(4,4-dimethylpiperidin-1-yl)-2-methylpyridin-3-yl]acetic acid], with 52 nM; and `Cc1ncc(-c2cccnc2)c(N2CCC(C)(C)CC2)c1[C@H](OC(C)(C)C)C(=O)O` [Example 155, (2S)-2-(tert-Butoxy)-2-[4-(4,4-dimethylpiperidin-1-yl)-6-methyl-[3, 3′-bipyridine]-5-yl]acetic acid], with 11 nM; and `COc1cccc(-c2cnc(C)c([C@H](OC(C)(C)C)C(=O)O)c2N2CCC(C)(C)CC2)c1F` [Example 156, (2S)-2-(tert-Butoxy)-2-[4-(4,4-dimethylpiperidin-1-yl)-5-(2-fluoro-3-methoxyphenyl)-2-methylpyridin-3-yl]acetic acid], with 1 nM. Compound `COc1cc(F)c(F)c(-c2cnc(C)c([C@H](OC(C)(C)C)C(=O)O)c2N2CCC(C)(C)CC2)c1` [Example 157, (2S)-2-(tert-Butoxy)-2-[5-(2,3-difluoro-5-methoxyphenyl)-4-(4,4-dimethylpiperidin-1-yl)-2-methylpyridin-3-yl]acetic acid] yielded an EC50 of 22 nM. Then `COc1cccc(-c2cnc(C)c([C@H](OC(C)(C)C)C(=O)O)c2N2CCC(C)(C)CC2)c1OC` [Example 158, (2S)-2-(tert-Butoxy)-2-[5-(2,3-dimethoxyphenyl)-4-(4,4-dimethylpiperidin-1-yl)-2-methylpyridin-3-yl]acetic acid], with 16 nM.

Consider `Cc1ccc(-c2cnc(C)c([C@H](OC(C)(C)C)C(=O)O)c2N2CCC(C)(C)CC2)c(F)c1F` [Example 159, (2S)-2-(tert-Butoxy)-2-[5-(2,3-difluoro-4-methylphenyl)-4-(4,4-dimethylpiperidin-1-yl)-2-methylpyridin-3-yl]acetic acid], for which the EC50 was found to be 2 nM. In the case of `Cc1ncc(-c2cccc(F)c2C)c(N2CCC(C)(C)CC2)c1[C@H](OC(C)(C)C)C(=O)O` [Example 160, (2S)-2-(tert-Butoxy)-2-[4-(4,4-dimethylpiperidin-1-yl)-5-(3-fluoro-2-methylphenyl)-2-methylpyridin-3-yl]acetic acid] it was 13 nM.

Take `COc1cccc(-c2cnc(C)c([C@H](OC(C)(C)C)C(=O)O)c2N2CCC(C)(C)CC2)c1Cl` [Example 161, (2S)-2-(tert-Butoxy)-2-[5-(2-chloro-3-methoxyphenyl)-4-(4,4-dimethylpiperidin-1-yl)-2-methylpyridin-3-yl]acetic acid]: the response was half-maximal at 9 nM (EC50). On to `Cc1ncc(-c2ccc(F)c(F)c2F)c(N2CCC(C)(C)CC2)c1[C@H](OC(C)(C)C)C(=O)O` [Example 162, (2S)-2-(tert-Butoxy)-2-[4-(4,4-dimethylpiperidin-1-yl)-2-methyl-5-(2,3,4-trifluorophenyl)pyridin-3-yl]acetic acid], for which the response was half-maximal at 7 nM (EC50). Consider `Cc1cccc(-c2cnc(C)c([C@H](OC(C)(C)C)C(=O)O)c2N2CCC(C)(C)CC2)c1F` [Example 163, (2S)-2-(tert-Butoxy)-2-[4-(4,4-dimethylpiperidin-1-yl)-5-(2-fluoro-3-methylphenyl)-2-methylpyridin-3-yl]acetic acid], for which the midpoint of the response, the EC50, lay at 6 nM.

`COc1cc(-c2cnc(C)c([C@H](OC(C)(C)C)C(=O)O)c2N2CCC(C)(C)CC2)ccn1` [Example 164, (2S)-2-(tert-Butoxy)-2-[4-(4,4-dimethylpiperidin-1-yl)-2′-methoxy-6-methyl-[3, 4′-bipyridine]-5-yl]acetic acid]: the EC50 was 4 nM. In the case of `Cc1ncc(-c2cccc(F)c2Cl)c(N2CCC(C)(C)CC2)c1[C@H](OC(C)(C)C)C(=O)O` [Example 165, (2S)-2-(tert-Butoxy)-2-[5-(2-chloro-3-fluorophenyl)-4-(4,4-dimethylpiperidin-1-yl)-2-methylpyridin-3-yl]acetic acid] it was 8 nM; in that of `COc1c(F)cccc1-c1cnc(C)c([C@H](OC(C)(C)C)C(=O)O)c1N1CCC(C)(C)CC1` [Example 166, (2S)-2-(tert-Butoxy)-2-[4-(4,4-dimethylpiperidin-1-yl)-5-(3-fluoro-2-methoxyphenyl)-2-methylpyridin-3-yl]acetic acid], 11 nM; in that of `COc1ccccc1-c1cnc(C)c([C@H](OC(C)(C)C)C(=O)O)c1N1CCC(C)(C)CC1` [Example 167, (2S)-2-(tert-Butoxy)-2-[4-(4,4-dimethylpiperidin-1-yl)-5-(2-methoxyphenyl)-2-methylpyridin-3-yl]acetic acid], 5 nM. In the case of `COc1cccc(-c2cnc(C)c([C@H](OC(C)(C)C)C(=O)O)c2N2CCC(C)(C)CC2)c1` [Example 168, (2S)-2-(tert-Butoxy)-2-[4-(4,4-dimethylpiperidin-1-yl)-5-(3-methoxyphenyl)-2-methylpyridin-3-yl]acetic acid] it was 4 nM.

`Cc1ncc(-c2ccc(OC(C)C)c(F)c2F)c(N2CCC(C)(C)CC2)c1[C@H](OC(C)(C)C)C(=O)O` [Example 169, (2S)-2-(tert-Butoxy)-2-{5-[2,3-difluoro-4-(propan-2-yloxy)phenyl]-4-(4,4-dimethylpiperidin-1-yl)-2-methylpyridin-3-yl}acetic acid] returned an EC50 of 7 nM. With `Cc1cc(F)c(F)c(-c2cnc(C)c([C@H](OC(C)(C)C)C(=O)O)c2N2CCC(C)(C)CC2)c1` [Example 170, (2S)-2-(tert-Butoxy)-2-[5-(2,3-difluoro-5-methylphenyl)-4-(4,4-dimethylpiperidin-1-yl)-2-methylpyridin-3-yl]acetic acid], the EC50 was 19 nM. `COc1c(F)ccc(-c2cnc(C)c([C@H](OC(C)(C)C)C(=O)O)c2N2CCC(C)(C)CC2)c1F` [Example 171, (2S)-2-(tert-Butoxy)-2-[5-(2,4-difluoro-3-methoxyphenyl)-4-(4,4-dimethylpiperidin-1-yl)-2-methylpyridin-3-yl]acetic acid] yielded an EC50 of 5 nM. In the case of `Cc1ncc(-c2ccc(C(F)(F)F)c(F)c2F)c(N2CCC(C)(C)CC2)c1[C@H](OC(C)(C)C)C(=O)O` [Example 172, (2S)-2-(tert-Butoxy)-2-{5-[2,3-difluoro-4-(trifluoromethyl)phenyl]-4-(4,4-dimethylpiperidin-1-yl)-2-methylpyridin-3-yl}acetic acid] it was 14 nM. In the case of `CCOc1c(C(F)(F)F)ccc(-c2cnc(C)c([C@H](OC(C)(C)C)C(=O)O)c2N2CCC(C)(C)CC2)c1F` [Example 173, (2S)-2-(tert-butoxy)-2-[4-(4,4-dimethylpiperidin-1-yl)-5-[3-ethoxy-2-fluoro-4-(trifluoromethyl)phenyl]-2-methylpyridin-3-yl]acetic acid] it was 21 nM; in that of `Cc1ncc(-c2cc(F)cc(F)c2F)c(N2CCC(C)(C)CC2)c1[C@H](OC(C)(C)C)C(=O)O` [Example 174, (2S)-2-(tert-Butoxy)-2-[4-(4,4-dimethylpiperidin-1-yl)-2-methyl-5-(2,3,5-trifluorophenyl)pyridin-3-yl]acetic acid], 11 nM; in that of `CCOc1ccc(-c2cnc(C)c([C@H](OC(C)(C)C)C(=O)O)c2N2CCC(C)(C)CC2)c(F)c1F` [Example 175, (2S)-2-(tert-Butoxy)-2-[4-(4,4-dimethylpiperidin-1-yl)-5-(4-ethoxy-2,3-difluorophenyl)-2-methylpyridin-3-yl]acetic acid], 6 nM. In the case of `Cc1ncc(-c2ccc3ccncc3c2)c(N2CCC(C)(C)CC2)c1[C@H](OC(C)(C)C)C(=O)O` [Example 176, (2S)-2-(tert-Butoxy)-2-[4-(4,4-dimethylpiperidin-1-yl)-5-(isoquinolin-7-yl)-2-methylpyridin-3-yl]acetic acid] it was 5 nM. `Cc1cccc(-c2cnc(C)c([C@H](OC(C)(C)C)C(=O)O)c2N2CCC(C)(C)CC2)c1` [Example 177, (2S)-2-(tert-Butoxy)-2-[4-(4,4-dimethylpiperidin-1-yl)-2-methyl-5-(3-methylphenyl)pyridin-3-yl]acetic acid] had an EC50 of 12 nM.

`COc1ccc(-c2cnc(C)c([C@H](OC(C)(C)C)C(=O)O)c2N2CCC(C)(C)CC2)cc1C` [Example 178, (2S)-2-(tert-Butoxy)-2-[4-(4,4-dimethylpiperidin-1-yl)-5-(4-methoxy-3-methylphenyl)-2-methylpyridin-3-yl]acetic acid] had an EC50 of 2 nM. In the case of `COc1ccc(-c2cnc(C)c([C@H](OC(C)(C)C)C(=O)O)c2N2CCC(C)(C)CC2)cc1F` [Example 179, (2S)-2-(tert-Butoxy)-2-[4-(4,4-dimethylpiperidin-1-yl)-5-(3-fluoro-4-methoxyphenyl)-2-methylpyridin-3-yl]acetic acid] it was 5 nM; in that of `Cc1ncc(-c2ccc3c(c2)OCO3)c(N2CCC(C)(C)CC2)c1[C@H](OC(C)(C)C)C(=O)O` [Example 180, (2S)-2-[5-(2H-1,3-Benzodioxol-5-yl)-4-(4,4-dimethylpiperidin-1-yl)-2-methylpyridin-3-yl]-2-(tert-butoxy)acetic acid], 3 nM; in that of `COc1ccc(-c2cnc(C)c([C@H](OC(C)(C)C)C(=O)O)c2N2CCC(C)(C)CC2)c(F)c1` [Example 181, (2S)-2-(tert-Butoxy)-2-[4-(4,4-dimethylpiperidin-1-yl)-5-(2-fluoro-4-methoxyphenyl)-2-methylpyridin-3-yl]acetic acid], 6 nM.
